Patent US8754242B2, “Herbicides” (Syngenta Crop Protection LLC, priority 2007, dated 2014)

How the values were obtained:
Format in all cases: in vivo
[1] = system: Echinochloa crus-galli (ECHCG); test: Test Example 1 pre-emergence herbicidal activity; settings: Echinochloa crus-galli, 480 h, rate 250 g/ha, evaluated 20 days later, read-out: Pre-emergence activity ECHCG (100=total damage to plant; 0=no damage to plant)
Procedure: (§1) Monocotyledonous and dicotyledonous test plants were sown in standard soil in pots. After cultivation for one day (pre-emergence) or after 10 days cultivation (post-emergence) under controlled conditions in a glasshouse, the plants were sprayed with an aqueous spray solution derived from the formulation of the technical active ingredient in 0.6 ml acetone and 45 ml formulation solution containing 10.6% Emulsogen EL (Registry number 61791-12-6), 42.2% N-methylpyrrolidone, 42.2% dipropylene glycol monomethyl ether (Registry number 34590-94-8) and 0.2% X-77 (Registry number 11097-66-8). The test plants were then grown in a greenhouse under optimum conditions until, 15 days later for post-emergence and 20 days for pre-emergence, the test was evaluated (100=total damage to plant; 0=no damage to plant).
(§2) Alopecurus myosuroides (ALOMY), Avena fatua (AVEFA), Lolium perenne (LOLPE), Setaria faberi (SETFA), Digitaria sanguinalis (DIGSA), Echinochloa crus-galli (ECHCG)

Lolium perenne (LOLPE) [2] = test: Test Example 1 pre-emergence herbicidal activity; settings: Lolium perenne, 480 h, rate 250 g/ha, evaluated 20 days later, read-out: Pre-emergence activity LOLPE (100=total damage to plant; 0=no damage to plant)
Procedure: as §1, §2

[3] = system: Digitaria sanguinalis (DIGSA); test: Test Example 1 pre-emergence herbicidal activity; settings: Digitaria sanguinalis, 480 h, rate 250 g/ha, evaluated 20 days later, read-out: Pre-emergence activity DIGSA (100=total damage to plant; 0=no damage to plant)
Procedure: as §1, §2

[4] = system: Alopecurus myosuroides (ALOMY); test: Test Example 1 pre-emergence herbicidal activity; settings: Alopecurus myosuroides, 480 h, rate 250 g/ha, evaluated 20 days later, read-out: Pre-emergence activity ALOMY (100=total damage to plant; 0=no damage to plant)
Procedure: as §1, §2

Setaria faberi (SETFA) [5] = test: Test Example 1 pre-emergence herbicidal activity; settings: Setaria faberi, 480 h, rate 250 g/ha, evaluated 20 days later, read-out: Pre-emergence activity SETFA (100=total damage to plant; 0=no damage to plant)
Procedure: as §1, §2

Avena fatua (AVEFA) [6] = test: Test Example 1 pre-emergence herbicidal activity; settings: Avena fatua, 480 h, rate 250 g/ha, evaluated 20 days later, read-out: Pre-emergence activity AVEFA (100=total damage to plant; 0=no damage to plant)
Procedure: as §1, §2

[7] = system: Echinochloa crus-galli (ECHCG); test: Test Example 1 post-emergence herbicidal activity; settings: 360 h, rate 125 g/ha, evaluated 15 days later, read-out: Post-emergence activity ECHCG (100=total damage to plant; 0=no damage to plant)
Procedure: as §1, §2

Lolium perenne (LOLPE) [8] = test: Test Example 1 post-emergence herbicidal activity; settings: 360 h, rate 125 g/ha, evaluated 15 days later, read-out: Post-emergence activity LOLPE (100=total damage to plant; 0=no damage to plant)
Procedure: as §1, §2

[9] = system: Digitaria sanguinalis (DIGSA); test: Test Example 1 post-emergence herbicidal activity; settings: 360 h, rate 125 g/ha, evaluated 15 days later, read-out: Post-emergence activity DIGSA (100=total damage to plant; 0=no damage to plant)
Procedure: as §1, §2

[10] = system: Alopecurus myosuroides (ALOMY); test: Test Example 1 post-emergence herbicidal activity; settings: 360 h, rate 125 g/ha, evaluated 15 days later, read-out: Post-emergence activity ALOMY (100=total damage to plant; 0=no damage to plant)
Procedure: as §1, §2

Setaria faberi (SETFA) [11] = test: Test Example 1 post-emergence herbicidal activity; settings: 360 h, rate 125 g/ha, evaluated 15 days later, read-out: Post-emergence activity SETFA (100=total damage to plant; 0=no damage to plant)
Procedure: as §1, §2

Avena fatua (AVEFA) [12] = test: Test Example 1 post-emergence herbicidal activity; settings: 360 h, rate 125 g/ha, evaluated 15 days later, read-out: Post-emergence activity AVEFA (100=total damage to plant; 0=no damage to plant)
Procedure: as §1, §2

SMILES	pest or weed control at 250 g/ha [1] [%]	pest or weed control at 250 g/ha (Lolium perenne (LOLPE) [2]) [%]	pest or weed control at 250 g/ha [3] [%]	pest or weed control at 250 g/ha [4] [%]	pest or weed control at 250 g/ha (Setaria faberi (SETFA) [5]) [%]	pest or weed control at 250 g/ha (Avena fatua (AVEFA) [6]) [%]	pest or weed control at 125 g/ha [7] [%]	pest or weed control at 125 g/ha (Lolium perenne (LOLPE) [8]) [%]	pest or weed control at 125 g/ha [9] [%]	pest or weed control at 125 g/ha [10] [%]	pest or weed control at 125 g/ha (Setaria faberi (SETFA) [11]) [%]	pest or weed control at 125 g/ha (Avena fatua (AVEFA) [12]) [%]
CCOC(=O)C1=NOC2C1[C@@H]1O[C@H]2[C@H]2C(O)=C(c3c(CC)cc(C)cc3CC)C(=O)[C@H]21 (mixture of isomers) [Example T16]	0	0	0	0	10	10	30	50	0	40	0	20
Cc1cc(C)c(C2=C(O)[C@H]3[C@@H](C2=O)[C@@H]2C=C[C@@]3(C(C)O)O2)c(C)c1 (mixture of isomers) [Example T39]	30	30	30	10	40	20	70	0	70	10	60	20
C#CCOC(=O)OC1=C(c2c(C)cc(C)cc2C)C(=O)[C@@H]2[C@H]1[C@H]1CC[C@@H]2O1 (racemic) [Example P3]	100	100	90	100	90	100	100	100	70	100	80	90
Cc1cc(C)c(C2=C(OC(=O)OC(C)C)[C@H]3[C@@H](C2=O)[C@@H]2CC[C@H]3O2)c(C)c1 (racemic) [Example P4]	90	100	90	100	70	100	100	100	80	100	90	90
Cc1cc(C)c(C2=C(OC(=O)C3CC3)[C@H]3[C@@H](C2=O)[C@@H]2CC[C@H]3O2)c(C)c1 (racemic) [Example P5]	90	100	100	100	90	100	100	100	60	100	80	90
CCc1cc(C)cc(CC)c1C1=C(OC(=O)C(C)(C)C)[C@H]2[C@@H](C1=O)[C@@H]1CC[C@H]2O1 (racemic) [Example P14]	100	100	100	100	100	100	100	90	100	90	100	90
CC#CCOC(=O)OC1=C(c2c(CC)cc(C)cc2CC)C(=O)[C@@H]2[C@H]1[C@H]1CC[C@@H]2O1 (racemic) [Example P15]	100	90	100	80	100	90	100	90	80	100	80	90
CCc1cc(C)cc(CC)c1C1=C(OC(=O)OCC(C)C)[C@H]2[C@@H](C1=O)[C@@H]1CC[C@H]2O1 (racemic) [Example P24]	100	100	100	90	100	90	100	–	–	100	100	–
Cc1cc(C)c(C2=C(OC(=O)C(C)(C)C)[C@H]3[C@@H](C2=O)[C@@H]2CC[C@H]3O2)c(C)c1 (racemic) [Example P33, (1RS,2SR,6RS,7SR)-5-oxo-4-(2,4,6-trimethylphenyl)-10-oxatricyclo[5.2.1.0^2,6]dec-3-en-3-yl 2,2-dimethylpropionate]	–	100	80	90	80	70	90	80	70	80	70	70
COC[C@]12CC[C@H](O1)[C@@H]1C(=O)C(c3c(C)cc(C)cc3C)=C(OC(=O)C3CC3)[C@@H]12 (single isomer, unassigned) [Example P30]	90	90	80	80	80	80	100	70	90	80	80	–
CSC[C@]12CC[C@H](O1)[C@@H]1C(=O)C(c3c(C)cc(C)cc3C)=C(O)[C@@H]12 [Example T53]	0	10	10	10	10	20	–	–	–	–	–	–
CCc1cc(C)cc(CC)c1C1=C(O)[C@@H]2[C@@H]3O[C@@H](C[C@H]3c3cccc(Cl)c3)[C@@H]2C1=O [Example T148]	80	70	70	60	60	50	–	–	–	–	–	–
CCc1cc(C)cc(CC)c1C1=C(O)[C@@H]2[C@@H]3O[C@@H](C[C@H]3c3cccc(F)c3C#N)[C@@H]2C1=O [Example T157]	50	70	0	30	0	–	100	40	60	60	60	60
